Reference: US20030215462A1, “Use of UGT inhibitors to increase bioavailability” (priority 2001, published 2003)
Where “and” joins values, the source holds several entries; their conditions need not be identical. Equal entries are not always repeated.

Key:
[1] = target: T1, UGT1A10 (Homo sapiens, UniProt Q9HAW8); assay: in vitro; conditions: pH 7.5, % of control metabolism
T1 sequence (Q9HAW8 26-530): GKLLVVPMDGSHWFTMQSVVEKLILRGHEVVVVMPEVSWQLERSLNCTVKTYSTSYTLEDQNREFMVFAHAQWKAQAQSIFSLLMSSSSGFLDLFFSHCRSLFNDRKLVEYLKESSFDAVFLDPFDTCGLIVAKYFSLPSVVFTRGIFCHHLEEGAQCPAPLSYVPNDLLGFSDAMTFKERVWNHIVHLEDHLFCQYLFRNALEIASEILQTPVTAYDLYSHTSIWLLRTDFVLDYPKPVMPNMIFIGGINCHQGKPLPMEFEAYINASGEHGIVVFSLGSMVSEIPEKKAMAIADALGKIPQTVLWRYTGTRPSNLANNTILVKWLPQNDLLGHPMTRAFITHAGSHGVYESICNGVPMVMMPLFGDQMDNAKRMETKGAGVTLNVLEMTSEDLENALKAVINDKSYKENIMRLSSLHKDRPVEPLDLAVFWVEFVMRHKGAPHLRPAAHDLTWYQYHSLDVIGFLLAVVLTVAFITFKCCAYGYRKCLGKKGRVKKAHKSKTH
Description: (§2) Compounds were eluted using a binary solvent gradient system. Solvent A was water brought to pH 8 with NH4OH. Solvent B was methanol. Solvent flow rate was 1 ml/min and the column temperature was maintained at 50° C. Detection was at 280 nm. […] The system was then returned to the initial conditions and equilibrated for 3 min.

[2] = test system: UGT enzymes of human liver microsomes; assay: Inhibition of labetalol glucuronidation (LG1, LG2) in human liver microsomes; assay type: biochemical; conditions: labetalol 50 μM; inhibitor 500 μM
[3] = test system: T2, UGT enzymes of human liver microsomes; assay: Inhibition of 7-HFC glucuronidation in human liver microsomes; assay type: biochemical; conditions: for % of control metabolism (SD, n = 3), 7-HFC glucuronidation: 7-HFC 50 μM, human liver microsomes 100 μg/ml, 15 min
T2 construct: percentage of control metabolism, 7-HFC glucuronidation; percentage of control metabolism, 7-HFC glucuronidation

[4] = target: T3, UGT1A1 (Homo sapiens, UniProt P22309); assay: in vitro
T3 sequence (P22309 26-533): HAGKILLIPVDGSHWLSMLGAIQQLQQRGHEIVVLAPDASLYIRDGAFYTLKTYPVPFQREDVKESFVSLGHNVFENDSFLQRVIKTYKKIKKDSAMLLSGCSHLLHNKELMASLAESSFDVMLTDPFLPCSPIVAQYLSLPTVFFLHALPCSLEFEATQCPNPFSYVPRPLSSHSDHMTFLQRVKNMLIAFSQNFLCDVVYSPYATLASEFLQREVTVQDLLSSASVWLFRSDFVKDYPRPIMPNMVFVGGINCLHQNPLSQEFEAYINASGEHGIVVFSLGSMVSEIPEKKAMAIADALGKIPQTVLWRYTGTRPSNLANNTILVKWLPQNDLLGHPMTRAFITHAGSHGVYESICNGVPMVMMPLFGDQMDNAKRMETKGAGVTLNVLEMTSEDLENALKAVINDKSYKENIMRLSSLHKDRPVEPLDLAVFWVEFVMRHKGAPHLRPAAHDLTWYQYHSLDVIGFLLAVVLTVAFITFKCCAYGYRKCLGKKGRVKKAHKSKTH
Description: as §2

[5] = test system: UGT enzymes of human liver microsomes; assay: Inhibition of estradiol (E2) glucuronidation in human liver microsomes; assay type: biochemical; conditions: liver 062101; E2 50 μM; inhibitor 100 μM
Description: (§1) Compounds were eluted using a binary solvent gradient system where solvent A was dilute phosphoric acid (pH 3) and solvent B was 80:20 acetonitrile-methanol. […] Detection was at 280 nm.

[6] = test system: T4, UGT enzymes of human liver microsomes; assay: as above; assay type: biochemical; conditions: liver 032101; E2 50 μM; inhibitor 100 μM
T4 construct: residual metabolism (% of control), E2-3-β-D-glucuronide; other: liver 032101; residual metabolism (% of control), E2-3-β-D-glucuronide
Description: as §1

[7] = pH 7.5, % of control metabolism, raloxifene G1
[8] = pH 7.5, % of control metabolism, raloxifene G2
[9] = pH 7.5, Inhibition of raloxifene glucuronidation, G1, UGT1A1
[10] = pH 7.5, Inhibition of raloxifene glucuronidation, G2, UGT1A1

O=C(O)c1cc(-c2ccc(F)cc2F)ccc1O [Diflunisal, reference compound]
activity at 15 min, 50 µM ([1]; raloxifene G1): 90%
activity at 15 min, 50 µM ([1]; raloxifene G2): 90%
residual metabolism (percentage of control), labetalol LG1 [2]: 43 (5) %
residual metabolism (percentage of control), labetalol LG2 [2]: 35 (2) %
percentage of control metabolism, 7-HFC glucuronidation ([3]; inhibitor 100 μM): 77 (2) %
% of control metabolism (SD, n = 3), 7-HFC glucuronidation ([3]; inhibitor 100 μM): 77 (2) %
percentage of control metabolism, 7-HFC glucuronidation ([3]; inhibitor 200 μM): 65 (3) %
% of control metabolism (SD, n = 3), 7-HFC glucuronidation ([3]; inhibitor 200 μM): 65 (3) %
percentage of control metabolism, 7-HFC glucuronidation ([3]; inhibitor 500 μM): 37 (1) % and 38 (0) %
% of control metabolism (SD, n = 3), 7-HFC glucuronidation ([3]; inhibitor 500 μM): 37 (1), % and 38 (0) %
activity at 15 min, 25 µM [4, 7]: 53%
activity at 15 min, 50 µM [4, 7]: 31%
activity at 15 min, 25 µM [4, 8]: 53%
activity at 15 min, 50 µM [4, 8]: 33%
activity at 15 min, 25 µM [4, 9]: 53%
activity at 15 min, 50 µM [4, 9]: 31%
activity at 15 min, 25 µM [4, 10]: 53%
activity at 15 min, 50 µM [4, 10]: 33%
residual metabolism (% of control), E2-3-β-D-glucuronide [5]: 59 (2), obs %
residual metabolism (% of control), E2-3-β-D-glucuronide [6]: 49 (1), obs %
